Measured values reported in US7217548B2, “N-acetylglucosaminlytransferase and polynucleotide encoding the same” (National Institute of Advanced Industrial Science and …, priority 2000, dated 2007).
Entries after “also recorded” stand apart in the source; their conditions may differ. Where two headings read alike, the source gives them in different places. Peptide text beside a SMILES is read from it. * marks the point of attachment. αMan = OC[C@H]1O[C@H](*)[C@@H](O)[C@@H](O)[C@@H]1O

Assays:
OMGnT [1] = target: T1, OMGnT (Homo sapiens, UniProt Q8WZA1, M623V); assay: OMGnT activity of microsomal fractions of HEK293T cells transfected with full-length human OMGnT plasmid; type: biochemical
T1 construct: a cDNA of approximately 2.0 kb encoding the full length of human OMGnT is inserted; expressed in transfected cells; host or cells: HEK293T
T1 sequence (Q8WZA1 whole entry M623V): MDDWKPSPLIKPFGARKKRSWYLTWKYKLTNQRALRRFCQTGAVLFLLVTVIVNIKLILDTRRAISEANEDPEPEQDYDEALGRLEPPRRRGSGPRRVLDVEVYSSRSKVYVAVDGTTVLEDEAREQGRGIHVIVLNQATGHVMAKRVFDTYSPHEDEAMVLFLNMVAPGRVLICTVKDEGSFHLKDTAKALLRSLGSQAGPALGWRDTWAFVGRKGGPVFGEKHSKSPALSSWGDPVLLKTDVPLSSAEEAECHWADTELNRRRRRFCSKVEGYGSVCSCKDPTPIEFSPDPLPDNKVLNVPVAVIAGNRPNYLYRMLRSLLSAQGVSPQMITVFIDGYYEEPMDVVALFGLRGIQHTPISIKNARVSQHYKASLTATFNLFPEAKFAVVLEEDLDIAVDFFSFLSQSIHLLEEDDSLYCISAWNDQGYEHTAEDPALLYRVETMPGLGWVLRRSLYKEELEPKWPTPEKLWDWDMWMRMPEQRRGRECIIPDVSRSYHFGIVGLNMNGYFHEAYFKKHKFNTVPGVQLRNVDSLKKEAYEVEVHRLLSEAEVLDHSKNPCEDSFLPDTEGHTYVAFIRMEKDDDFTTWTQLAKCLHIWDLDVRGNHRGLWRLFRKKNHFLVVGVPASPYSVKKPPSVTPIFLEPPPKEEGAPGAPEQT
Procedure: (§1) The enzyme solution was added to 140 mM MES [2-(N-morpholino) ethanesulfonic acid] buffer (pH 7.0) containing 0.4 mM Man-peptide, 0.2 mM UDP-[^3H]GlcNAc (up to 228,000 dpm/nmol), 10 mM MnCl2, 5 mM AMP, 200 mM GlcNAc, 2%(w/v) Triton X-100, 10% glycerol, 2 μg/ml antipain, 2 μg/ml chymostatin, 3 μg/ml pepstatin A, 2 μg/ml leupeptin, 1 mM benzamidine-HCl, and 1 mM PMSF (phenylmethylsulfonyl fluoride) to prepare 50 μl of reaction solution. After the reaction at 37° C. for 3 hours, the reaction was terminated by 3 minutes of boiling. The reaction mixture was then filtered with a filter Ultrafree-MC (Millipore) having a pore size of 0.22 μm to remove solids, and analyzed by Wakopak 5C18-200 column (4.6×250 mm, Wako Pure Chemical Industries, Ltd.). The separation was carried out using concentration gradient with Solution A and Solution B at a flow rate of 1.0 ml/min. […] Peptide detection was carried out at 214 nm, and the radioactivity of each fraction was assayed using a liquid scintillation counter.
The mixture was centrifuged for 10 minutes at 900×g, and then the obtained supernatant was centrifuged for 1 hour at 100,000×g, thereby obtaining a microsomal fraction as a precipitate. In the case of preparing solubilized enzyme, the precipitate was suspended in 140 mM MES buffer (pH 7.0) (referred to as solubilization buffer) containing 5 mM AMP, 200 mM GlcNAc, 2%(w/v) Triton X-100, 10% glycerol, 2 μg/ml antipain, 2 μg/ml chymostatin, 3 μg/ml pepstatin A, 2 μg/ml leupeptin, 1 mM benzamidine-HCl, and 1 mM PMSF(phenylmethylsulfonyl fluoride) and sonicated. Thereafter, the resultant was centrifuged for 1 hour at 100,000×g and the obtained supernatant was used.
The expression plasmid was transiently expressed in an HEK293T cell in the same manner as described in Example 3. 15 μg of plasmid was transfected to 50–70% confluent cells in a 10 cm petri dish. After overnight cultivation, the medium was changed. After a further 48-hour cultivation, cells were collected.
A microsomal fraction was prepared from cells by the method described in Example 2, and OMGnT activity of a soluble fraction and an insoluble fraction were assayed by the method described in Example 1.

[2] = target: T2, OMGnT derived from a newborn rat brain (Rattus norvegicus, UniProt Q5XIN7); assay: Divalent cation requirement for OMGnT activity; type: biochemical; conditions: for Relative activity of OMGnT (%): each additive 10 mM, activity with 10 mM MnCl2 taken as 100%; for effect on OMGnT activity relative to Mn2+: 10 mM for each divalent cation
T2 construct: from tissue; host or cells: newborn rat brain
T2 sequence (Q5XIN7 whole entry): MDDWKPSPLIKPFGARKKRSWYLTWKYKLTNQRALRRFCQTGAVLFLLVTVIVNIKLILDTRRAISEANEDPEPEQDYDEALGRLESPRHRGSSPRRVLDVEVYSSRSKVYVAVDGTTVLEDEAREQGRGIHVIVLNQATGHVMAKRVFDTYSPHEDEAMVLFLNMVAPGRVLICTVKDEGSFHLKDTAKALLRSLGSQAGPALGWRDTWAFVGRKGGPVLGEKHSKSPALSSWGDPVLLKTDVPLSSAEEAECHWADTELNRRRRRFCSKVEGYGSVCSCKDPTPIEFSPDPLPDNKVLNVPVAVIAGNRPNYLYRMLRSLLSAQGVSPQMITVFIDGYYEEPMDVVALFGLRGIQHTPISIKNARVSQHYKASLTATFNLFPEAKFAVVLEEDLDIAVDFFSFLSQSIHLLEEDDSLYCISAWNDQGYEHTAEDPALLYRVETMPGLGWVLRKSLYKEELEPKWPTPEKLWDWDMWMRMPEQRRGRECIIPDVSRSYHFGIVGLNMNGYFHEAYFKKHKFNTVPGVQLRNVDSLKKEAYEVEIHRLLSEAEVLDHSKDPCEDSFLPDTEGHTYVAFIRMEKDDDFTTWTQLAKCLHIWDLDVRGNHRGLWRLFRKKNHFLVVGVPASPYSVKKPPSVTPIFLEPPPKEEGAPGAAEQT
Procedure: *OMGnT activity was determined by adding each of the metal ions (10 mM) to a OMGnT sample. The figures in the Table are expressed in percent, taking the activity when 10 mM MnCl2 is added as 100%.

His-Xpress-sOMGnT(L) = target: T3, His-Xpress-sOMGnT(L) (Homo sapiens, UniProt Q8WZA1, M623V); assay: Substrate specificity and kinetic parameters of solubilized human OMGnT enzyme (L); type: biochemical; conditions: for OMGnT relative activity (%) His-Xpress-sOMGnT(L): as sugar receptor, activity with Man-peptide regarded as 100%
T3 construct: 595 amino acids from 66: Ser thereof (66: Ser to 660: Thr), respectively; Ig kappa chain secretory signal (N); made in house; host or cells: HEK293T (transient, secreted into serum-free medium)
T3 sequence (Q8WZA1 66-660 M623V): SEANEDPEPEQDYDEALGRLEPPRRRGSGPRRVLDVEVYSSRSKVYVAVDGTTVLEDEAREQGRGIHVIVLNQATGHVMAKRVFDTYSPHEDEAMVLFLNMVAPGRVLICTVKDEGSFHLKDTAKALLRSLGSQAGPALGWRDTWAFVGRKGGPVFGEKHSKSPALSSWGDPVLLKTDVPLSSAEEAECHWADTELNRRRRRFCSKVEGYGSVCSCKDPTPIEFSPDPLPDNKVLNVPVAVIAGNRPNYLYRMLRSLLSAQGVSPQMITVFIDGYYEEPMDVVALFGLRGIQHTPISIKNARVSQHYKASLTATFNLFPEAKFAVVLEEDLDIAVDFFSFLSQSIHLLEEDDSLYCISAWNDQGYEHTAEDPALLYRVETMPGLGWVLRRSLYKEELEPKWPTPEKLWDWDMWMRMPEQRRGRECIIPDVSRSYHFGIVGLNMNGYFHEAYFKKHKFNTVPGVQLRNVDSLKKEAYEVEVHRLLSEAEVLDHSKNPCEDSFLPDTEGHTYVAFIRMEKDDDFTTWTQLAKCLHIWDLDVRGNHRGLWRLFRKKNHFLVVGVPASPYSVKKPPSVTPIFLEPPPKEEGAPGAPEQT
Procedure: (§2) […] […] The reaction mixture was then filtered with a filter Ultrafree-MC (Millipore) having a pore size of 0.22 μm to remove solids, and analyzed by Wakopak 5C18-200 column (4.6×250 mm, Wako Pure Chemical Industries, Ltd.). The separation was carried out using concentration gradient with Solution A and Solution B at a flow rate of 1.0 ml/min. […] Peptide detection was carried out at 214 nm, and the radioactivity of each fraction was assayed using a liquid scintillation counter.
(§3) The activity of GnT-1 was assayed with a method by Yoshida et al. [Yoshida, S., Suzuki, M., Yamano, S., Takeuchi, M., Ikenaga, H., Kioka, N., Sakai, H., and Komano, T., Glycobiology, (1999), 9, 53–58] as described below. A 20 μl reaction solution was prepared by adding an enzyme source thereto so as to have a final concentration of 100 mM MES (pH 6.0), 20 mM MnCl2, 5 μM Manα1–6(Manα1–3)Manα1–6(Manα1–3)Manβ1–4GlcNAcβ1–4GlcNAc-PA(M5GN2-PA; Takara Shuzo, PA-Sugar Chain 017), 1 mM UDP-GlcNAc, 100 mM GlcNAc, 5 mM AMP, 1% Triton X-100, and 0.2% BSA. The reaction solution was incubated at 37° C. for 1 hour, and the reaction was terminated in boiling water. Thereafter, the reaction solution was analyzed by a reverse phase HPLC (Cosmosil 5C18-AR column) available from Nacalai Tesque.
(§4) When Manα1–6(Manα1–3)Manβ1–4GlcNAcβ1–4GlcNAc-PA (M3GN2-PA; Takara Shuzo, PA-Sugar Chain 016) was used as a sugar receptor, the same method was employed for analysis.

His-Xpress-sOMGnT(S) = target: T4, His-Xpress-sOMGnT(S) (Homo sapiens, UniProt Q8WZA1, M623V); assay: Substrate specificity and kinetic parameters of solubilized human OMGnT enzyme (S); type: biochemical; conditions: for OMGnT relative activity (%) His-Xpress-sOMGnT(S): as sugar receptor, activity with Man-peptide regarded as 100%
T4 construct: Ig kappa chain secretory signal (N); made in house; host or cells: HEK293T (transient, secreted into serum-free medium)
T4 sequence (Q8WZA1 247-660 M623V): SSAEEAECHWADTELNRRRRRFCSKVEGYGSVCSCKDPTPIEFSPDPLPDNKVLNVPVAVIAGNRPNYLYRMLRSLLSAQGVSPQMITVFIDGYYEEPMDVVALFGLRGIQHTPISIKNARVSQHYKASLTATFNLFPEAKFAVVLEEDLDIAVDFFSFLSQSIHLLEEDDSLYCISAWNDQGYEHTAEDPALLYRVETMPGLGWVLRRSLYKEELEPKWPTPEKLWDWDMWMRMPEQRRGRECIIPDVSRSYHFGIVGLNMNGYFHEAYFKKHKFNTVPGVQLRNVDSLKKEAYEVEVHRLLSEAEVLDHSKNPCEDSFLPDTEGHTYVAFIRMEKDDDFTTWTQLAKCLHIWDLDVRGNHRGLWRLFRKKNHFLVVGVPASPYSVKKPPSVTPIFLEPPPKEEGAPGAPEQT
Procedure: as §2, §3, §4

GnT-I = target: T5, GnT-I (Homo sapiens, UniProt P26572); assay: GnT-I activity assay of solubilized enzymes; type: biochemical; conditions: method of Reference Example 2
T5 construct: Ig kappa chain secretory signal (N); made in house; host or cells: HEK293T (transient, secreted into serum-free medium)
T5 sequence (P26572 39-445 limits assumed): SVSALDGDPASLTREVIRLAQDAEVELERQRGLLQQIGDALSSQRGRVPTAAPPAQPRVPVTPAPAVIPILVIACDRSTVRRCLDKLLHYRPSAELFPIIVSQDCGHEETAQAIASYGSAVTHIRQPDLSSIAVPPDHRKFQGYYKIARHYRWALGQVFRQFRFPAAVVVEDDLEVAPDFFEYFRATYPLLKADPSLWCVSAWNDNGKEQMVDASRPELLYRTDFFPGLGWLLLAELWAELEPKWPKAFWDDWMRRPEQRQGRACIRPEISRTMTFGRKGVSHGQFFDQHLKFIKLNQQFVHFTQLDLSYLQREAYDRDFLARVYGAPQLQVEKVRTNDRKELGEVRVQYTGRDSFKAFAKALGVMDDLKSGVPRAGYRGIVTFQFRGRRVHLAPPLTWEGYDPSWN
Procedure: as §3, §4

OMGnT [3] = assay: OMGnT activity in serum-free medium of HEK293T cells expressing solubilized enzymes; type: biochemical, human; conditions: serum-free medium of HEK293T transfectants
Procedure: as §1
Each secretory expression plasmid was transiently expressed in a HEK293T cell derived from human embryonic kidney. Usually, HEK293T cells were cultured in D-MEM (Gibco, #11995-065) containing 10% Fetal Calf Serum (Hyclone), 10 mM MEM Non-Essential Amino Acids solution (Gibco), 2 mM Glutamine (Gibco), and 100 units/ml Penicillin/100 μg/ml Streptomycin (Gibco). […]

OMGnT [4] = assay: Substrate specificity of OMGnT expressed in animal cells (summary of properties); type: biochemical, human; conditions: reactivity toward mannosylnanopeptide regarded as 100%
Text: The biochemical properties of the OMGnT: an enzyme protein massively expressed in animal cells as described above are as follows.

Compound: OMGnT/pcDNA3.1zeo: expression plasmid for full-length human OMGnT (SEQ ID NO: 2), expressed in HEK293T; microsomal fractions assayed
- OMGnT activity, times higher than control (no plasmid), insoluble fraction (OMGnT [1]; insoluble fraction): ~140 times
- OMGnT activity, Insoluble fraction (OMGnT [1]; insoluble fraction of microsomal fraction, HEK293T): 243.9 pmol/hr/mg protein
- OMGnT activity, times higher than control (no plasmid), soluble fraction (OMGnT [1]; soluble fraction): about 120 times
- OMGnT activity, Soluble fraction (OMGnT [1]; soluble fraction of microsomal fraction, HEK293T): 182.7 pmol/hr/mg protein
- OMGnT activity, Total (OMGnT [1]; soluble plus insoluble fraction): 426.6 pmol/hr/mg protein

Compound: [Cl][Mn][Cl] [MnCl2]
- concentration range at which the effect on OMGnT activity is the greatest [2]: 1 to 10 mM
- Relative activity of OMGnT (%) [2]: 100%
- effect on OMGnT activity (in words) ([2]; listed as Mn^2+): greatest effect; also recorded: maximum effect

Compound: Manα1–6(Manα1–3)Manα1–6(Manα1–3)Manβ1–4GlcNAcβ1–4GlcNAc-PA [M5GN2-PA]
- OMGnT relative activity (%) His-Xpress-sOMGnT(L) (His-Xpress-sOMGnT(L)): 0%
- OMGnT relative activity (%) His-Xpress-sOMGnT(S) (His-Xpress-sOMGnT(S)): 0%

Compound: [Ca+2].[Cl-].[Cl-] [CaCl2]
- effect on OMGnT activity (in words) [2]: weak effect
- effect on OMGnT activity relative to Mn2+ [2]: approximately 15%
- Relative activity of OMGnT (%) [2]: 15%

Compound: CC(=O)N[C@H]1[C@@H](OP(=O)(O)OP(=O)(O)OC[C@H]2O[C@@H](n3ccc(=O)[nH]c3=O)[C@H](O)[C@@H]2O)O[C@H](CO)[C@@H](O)[C@@H]1O [UDP-GlcNAc]
- Km (His-Xpress-sOMGnT(L); 125 mM MOPS pH7.3, 0.4 mM Man-peptide, 7.5 mM MnCl2, 37° C., 2 hours, read-out: apparent Km value of His-Xpress-sOMGnT(L) toward UDP-GlcNAc): 730 µM
- Km (His-Xpress-sOMGnT(S); 125 mM MOPS pH7.3, 0.4 mM Man-peptide, 7.5 mM MnCl2, 37° C., 2 hours, read-out: apparent Km value of His-Xpress-sOMGnT(S) toward UDP-GlcNAc): 570 µM

Compound: Manα1–6(Manα1–3)Manβ1–4GlcNAcβ1–4GlcNAc-PA [M3GN2-PA]
- OMGnT relative activity (%) His-Xpress-sOMGnT(L) (His-Xpress-sOMGnT(L)): 0%
- OMGnT relative activity (%) His-Xpress-sOMGnT(S) (His-Xpress-sOMGnT(S)): 0%

Compound: [Cl-].[Cl-].[Mg+2] [MgCl2]
- effect on OMGnT activity relative to Mn2+ [2]: approximately 40%
- Relative activity of OMGnT (%) [2]: 39%

Compound: His-Xpress-sOMGnT(L): solubilized human OMGnT, 595 amino acids 66:Ser to 660:Thr, secreted from HEK293T; plasmid named in Table 3
- GnT-I activity (in words) (GnT-I): did not exhibit activity at all
- OMGnT activity (OMGnT [3]): 15 pmol/hr/mg protein
- OMGnT activity (in words) (OMGnT [3]): significantly high OMGnT activity

Compound: O=[N+]([O-])c1ccc(O[C@H]2O[C@H](CO)[C@@H](O)[C@H](O)[C@@H]2O)cc1 [p-nitrophenyl Man, p-nitrophenyl mannose]
- OMGnT relative activity (%) His-Xpress-sOMGnT(L) (His-Xpress-sOMGnT(L)): 0%
- reactivity of the enzyme toward sugar receptor (OMGnT [4]): 0%
- OMGnT relative activity (%) His-Xpress-sOMGnT(S) (His-Xpress-sOMGnT(S)): 0%

Compound: CC(=O)N[C@@H](C)C(=O)N[C@@H](C)C(=O)N1CCC[C@H]1C(=O)N[C@H](C(=O)N1CCC[C@H]1C(=O)N[C@H](C(=O)N[C@@H](C)C(=O)N[C@@H](C)C(=O)N1CCC[C@H]1C(N)=O)C(C)C)[C@@H](C)O[C@H]1O[C@H](CO)[C@@H](O)[C@H](O)[C@@H]1O [Man-peptide, Ac-Ala-Ala-Pro-Thr(Man)-Pro-Val-Ala-Ala-Pro-NH2] (Ac-AAPT(αMan)PVAAP-NH2)
- OMGnT relative activity (%) His-Xpress-sOMGnT(L) (His-Xpress-sOMGnT(L)): 100%
- OMGnT relative activity (%) His-Xpress-sOMGnT(S) (His-Xpress-sOMGnT(S)): 100%
